Assay results published in patent US20120277209A1, “PYRAZINE COMPOUNDS AS PHOSPHODIESTERASE 10 INHIBITORS” (Amgen Inc., priority 2009, published 2012).

Each compound was assayed against PDE10 (UniProt Q9Y233) (assay: PDE10 enzyme inhibition, IMAP TR-FRET assay (MPDE10A7 Enzyme Activity and Inhibition)). Conditions: IC50 class against PDE10; read-out: IC50.
Assay type: biochemical
Method in brief: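 IMAP TR-FRET read-out of PDE10 hydrolysis of fluorescein-cAMP or -cGMP (60 min, room temperature), after a 30 min compound-enzyme preincubation. Enzyme source was PDE10A or tissue homogenate. Averaged IC50s are reported as five range classes.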

SMILES	IC50 [nM]
O=C(c1ccc(Oc2nccnc2OCCN2CCOCC2)cc1)c1nc2ccccc2[nH]1 [Example 172, (1H-benzo[d]imidazol-2-yl)(4-(3-(2-morpholinoethoxy)pyrazin-2-yloxy)phenyl)methanone]	100 to 250
O=C1CCCC(c2nccnc2Oc2ccc(Nc3nc4ccccc4s3)cc2)C1 (racemic) [Example 194, (rac)-3-(3-(4-(benzo[d]thiazol-2-ylamino)phenoxy)pyrazin-2-yl)cyclohexanone]	< 25
O=C(c1ccc(Oc2nccnc2OCCCc2cccnc2)cc1)c1nc2ccccc2[nH]1 [Example 178, (1H-benzo[d]imidazol-2-yl)(4-(3-(3-(pyridin-3-yl)propoxy)pyrazin-2-yloxy)phenyl)methanone]	25 to 100
CN1CCC(c2nccnc2Oc2ccc(C(=O)c3nc4ccccc4[nH]3)cc2)CC1=O (centres unmarked) [Example 253, 4-(3-(4-(1H-benzo[d]imidazole-2-carbonyl)phenoxy)pyrazin-2-yl)-1-methylpiperidin-2-one]	< 25
CC(C)COc1nccnc1Oc1ccc(C(=O)c2nc3ccccc3[nH]2)cc1 [Example 162, (1H-benzo[d]imidazol-2-yl)(4-(3-isobutoxypyrazin-2-yloxy)phenyl)methanone]	1000 to 5000
Fc1cc(-c2nccnc2Oc2ccc(Nc3nc4ccccc4s3)c(F)c2)ccn1 [Example 158, N-(2-fluoro-4-(3-(2-fluoropyridin-4-yl)pyrazin-2-yloxy)phenyl)benzo[d]thiazol-2-amine]	25 to 100
c1ccc2sc(Nc3ccc(Oc4nccnc4NC4CCCOC4)cc3)nc2c1 (centres unmarked) [Example 58, N-(4-(3-(TETRAHYDRO-2H-PYRAN-3-YLAMINO)PYRAZIN-2-YLOXY)PHENYL)BENZO[D]THIAZOL-2-AMINE]	25 to 100
CC(C)(O)C1CCN(c2nccnc2Oc2ccc(Nc3nc4ccccc4s3)cc2)CC1 [Example 66, 2-(1-(3-(4-(benzo[d]thiazol-2-ylamino)phenoxy)pyrazin-2-yl)piperidin-4-yl)propan-2-ol]	< 25
Fc1cc(Oc2cnccn2)ccc1Nc1nc2ccccc2s1 [Example 216, N-(2-fluoro-4-(pyrazin-2-yloxy)phenyl)benzo[d]thiazol-2-amine]	1000 to 5000
N#CC1(c2nccnc2Oc2ccc(C(=O)c3nc4ccccc4[nH]3)cc2)CCOCC1 [Example 211, 4-(3-(4-(1H-benzo[d]imidazole-2-carbonyl)phenoxy)pyrazin-2-yl)tetrahydro-2H-pyran-4-carbonitrile]	< 25
O=C(c1ccc(Oc2nccnc2OCc2ccccn2)cc1)c1nc2ccccc2[nH]1 [Example 166, (1H-benzo[d]imidazol-2-yl)(4-(3-(pyridin-2-ylmethoxy)pyrazin-2-yloxy)phenyl)methanone]	25 to 100
O=C(c1ccc(Oc2nccnc2C2CCCOCC2)cc1)c1nc2ccccc2[nH]1 (centres unmarked) [Example 198, (1H-benzo[d]imidazol-2-yl)(4-(3-(oxepan-4-yl)pyrazin-2-yloxy)phenyl)methanone]	< 25
O=C(c1ccc(Oc2nccnc2OCCc2ccccn2)cc1)c1nc2ccccc2[nH]1 [Example 177, (1H-benzo[d]imidazol-2-yl)(4-(3-(2-(pyridin-2-yl)ethoxy)pyrazin-2-yloxy)phenyl)methanone]	25 to 100
Cc1cc(-c2nccnc2Oc2ccc(Nc3nc4ccccc4s3)cc2)ccn1 [Example 135, N-(4-(3-(2-methylpyridin-4-yl)pyrazin-2-yloxy)phenyl)benzo[d]thiazol-2-amine]	< 25
CC(=O)N1CC=C(c2nccnc2Oc2ccc(C(=O)c3nc4ccccc4[nH]3)cc2)CC1 [Example 133, 1-(4-(3-(4-(1H-benzo[d]imidazole-2-carbonyl)phenoxy)pyrazin-2-yl)-5,6-dihydropyridin-1(2H)-yl)ethanone]	< 25
O=C(c1ccc(Oc2nccnc2C(=O)NCCc2ccc(C(F)(F)F)cc2)cc1)c1nc2ccccc2[nH]1 [Example 255, 3-(4-(1H-benzo[d]imidazole-2-carbonyl)phenoxy)-N-(4-(trifluoromethyl)phenethyl) pyrazine-2-carboxamide]	< 25
Fc1ccc2nc(Nc3ccc(Oc4nccnc4C4CCOCC4)cc3)sc2c1 [Example 214, 6-fluoro-N-(4-(3-(tetrahydro-2H-pyran-4-yl)pyrazin-2-yloxy)phenyl)benzo[d]thiazol-2-amine]	< 25
O=C(c1ccc(Oc2nccnc2-c2ccncc2)cc1)c1nc2ccccc2[nH]1 [Example 124, (1H-benzo[d]imidazol-2-yl)(4-(3-(pyridin-4-yl)pyrazin-2-yloxy)phenyl)methanone]	< 25
OC[C@@H]1CCCN1c1nccnc1Oc1ccc(Nc2nc3ccccc3s2)cc1 [Example 76, (S)-(1-(3-(4-(benzo[d]thiazol-2-ylamino)phenoxy)pyrazin-2-yl)pyrrolidin-2-yl)methanol]	< 25
FCCN1CCC(c2nccnc2Oc2ccc(Nc3nc4ccccc4s3)cc2)CC1 [Example 236, N-(4-(3-(1-(2-fluoroethyl)piperidin-4-yl)pyrazin-2-yloxy)phenyl)benzo [d]thiazol-2-amine]	< 25
O=C(c1ccc(Oc2nccnc2Oc2ccccc2)cc1)c1nc2ccccc2[nH]1 [Example 167, (1H-benzo[d]imidazol-2-yl)(4-(3-phenoxypyrazin-2-yloxy)phenyl)methanone]	100 to 250
O=C(c1ccc(Oc2nccnc2C(=O)NC2(Cc3ccccc3)CC2)cc1)c1nc2ccccc2[nH]1 [Example 260, 3-(4-(1H-benzo[d]imidazole-2-carbonyl)phenoxy)-N-(1-benzylcyclopropyl) pyrazine-2-carboxamide]	< 25

Same assay, conditions: PDE10 enzyme inhibition; average IC50 data for each compound; read-out: Average IC50

SMILES	IC50 [nM]
c1ccc2sc(Nc3ccc(Oc4nccnc4N4CCC5(CC4)OCCO5)cc3)nc2c1 [drawing 784]	67.8
O=C(c1ccc(Oc2nccnc2[C@H]2CC[C@@H](O)CC2)cc1)c1nc2ccccc2[nH]1 [drawing 797]	1.04
O=C1CN(c2nccnc2Oc2ccc(Nc3nc4ccccc4s3)cc2)CCN1 [drawing 749]	6.41
O=C(O)c1ccc(-c2nccnc2Oc2ccc(C(=O)c3nc4ccccc4[nH]3)cc2)cc1 [drawing 761]	2.06
COc1ncccc1-c1nccnc1Oc1ccc(C(=O)c2nc3ccccc3[nH]2)cc1 [drawing 866]	0.321
O=C(c1ccc(Oc2nccnc2Cl)cc1)c1nc2cccc(F)c2[nH]1	406
O=C(O)C1CN(c2nccnc2Oc2ccc(Nc3nc4ccccc4s3)cc2)C1 [drawing 718]	2.16
COc1ncccc1-c1nccnc1Oc1ccc(Nc2nc3ccccc3s2)cc1 [drawing 886]	3.67
Fc1ccc2nc(Nc3ccc(Oc4nccnc4C4CCOCC4)cc3)sc2c1 [drawing 872]	0.661
FC1(c2nccnc2Oc2ccc(Nc3nc4ccccc4s3)cc2)CCOCC1 [drawing 927]	12.2
O=C(c1ccc(Oc2nccnc2-c2cccc3ncccc23)cc1)c1nc2ccccc2[nH]1 [drawing 803]	3.18
CCOC(=O)C1CCN(c2nccnc2Oc2ccc(C(=O)c3nc4ccccc4[nH]3)cc2)CC1	5.19
O=C(c1ccc(Oc2nccnc2N2CCC(N3CCOCC3)CC2)cc1)c1nc2ccccc2[nH]1	27
OC1CCN(c2nccnc2Oc2ccc(Nc3nc4ccccc4s3)cc2)CC1 [drawing 717]	8.17
COc1ccc(-c2nccnc2Oc2ccc(C(=O)c3nc4ccccc4[nH]3)cc2)cn1 [drawing 876]	14.2
O=C(c1ccc(Oc2nccnc2C2=CCC(F)(F)CC2)cc1)c1nc2ccccc2[nH]1 [drawing 862]	14.2

SMILES	IC50 [nM]
O=C(c1ccc(Oc2nccnc2[C@H]2CC[C@@H](O)CC2)cc1)c1nc2ccccc2[nH]1 [drawing 900]	1.36
Cc1ncsc1CCOc1nccnc1Oc1ccc(C(=O)c2nc3ccccc3[nH]2)cc1 [drawing 853]	1.86
Cc1ncccc1-c1nccnc1Oc1ccc(C(=O)c2nc3ccccc3n2C)cc1 [drawing 957]	8.78
COc1ncccc1-c1nccnc1Oc1ccc(Nc2nc3cc(F)ccc3s2)cc1 [drawing 964]	49.7
O=C(c1ccc(Oc2nccnc2Cl)cc1)c1nc2ccccc2[nH]1 [drawing 714]	287
C[C@]1(O)CC[C@@H](c2nccnc2Oc2ccc(C(=O)c3nc4ccccc4[nH]3)cc2)CC1 [drawing 923]	1.42
O=C(c1ccc(Oc2nccnc2[C@@H]2CCC[C@H](O)C2)cc1)c1nc2ccccc2[nH]1 (stereo in doubt)	1.02
COCC(=O)N1CCC(c2nccnc2Oc2ccc(C(=O)c3nc4ccccc4[nH]3)cc2)CC1 [drawing 945]	0.0365
O=C(c1ccc(Oc2nccnc2OCc2ccccn2)cc1)c1nc2ccccc2[nH]1 [drawing 849]	1710
C[C@]1(O)CC[C@H](c2nccnc2Oc2ccc(C(=O)c3nc4ccccc4[nH]3)cc2)CC1 [drawing 922]	0.748
O=C1CCC[C@@H](c2nccnc2Oc2ccc(Nc3nc4ccccc4s3)cc2)C1 [drawing 1002]	1.12
CC(C)(C)OC(=O)N1CCC(CO)(c2nccnc2Oc2ccc(Nc3nc4ccccc4s3)cc2)CC1 [drawing 875]	251
O=C(c1ccc(Oc2nccnc2OCc2cccnc2)cc1)c1nc2ccccc2[nH]1 [drawing 904]	38.8
O=C1CCCC(c2nccnc2Oc2ccc(Nc3nc4ccccc4s3)cc2)C1 (centres unmarked)	1.21
O=C(c1ccc(Oc2nccnc2C(=O)NCCc2ccc(C(F)(F)F)cc2)cc1)c1nc2ccccc2[nH]1 [drawing 807]	24.6
O=C(c1ccc(Oc2nccnc2C2CCOCC2)cc1)c1nc2ccccc2[nH]1 [drawing 752]	0.486

Same assay, conditions: PDE10 enzyme inhibition; chiral compounds separated from racemic mixtures; read-out: IC50

SMILES	IC50 [nM]
N#C[C@H]1CCN(c2nccnc2Oc2ccc(C(=O)c3nc4ccccc4[nH]3)cc2)C1 [Example 262, (S)-1-(3-(4-(1H-benzo[d]imidazole-2-carbonyl)phenoxy)pyrazin-2-yl)pyrrolidine-3-carbonitrile]	< 25
COC(=O)[C@@H]1CCN(c2nccnc2Oc2ccc(C(=O)c3nc4ccccc4[nH]3)cc2)C1 [Example 266, (R)-methyl 1-(3-(4-(1H-benzo[d]imidazole-2-carbonyl)phenoxy)pyrazin-2-yl)pyrrolidine-3-carboxylate]	< 25
